Measured values from US12257256B2, “Compositions and methods for inhibiting type 1 collagen production” (Florida State University Research Foundation, Inc., priority 2020, dated 2025).

Assays:
purified LARP6 protein = target: T1, purified LARP6 protein (Homo sapiens, UniProt Q9BRS8); assay: Affinity binding of commercial cefixime preparation to purified LARP6, elution and mass spectrometry; details: FIG. 11
T1 sequence (Q9BRS8 1-491): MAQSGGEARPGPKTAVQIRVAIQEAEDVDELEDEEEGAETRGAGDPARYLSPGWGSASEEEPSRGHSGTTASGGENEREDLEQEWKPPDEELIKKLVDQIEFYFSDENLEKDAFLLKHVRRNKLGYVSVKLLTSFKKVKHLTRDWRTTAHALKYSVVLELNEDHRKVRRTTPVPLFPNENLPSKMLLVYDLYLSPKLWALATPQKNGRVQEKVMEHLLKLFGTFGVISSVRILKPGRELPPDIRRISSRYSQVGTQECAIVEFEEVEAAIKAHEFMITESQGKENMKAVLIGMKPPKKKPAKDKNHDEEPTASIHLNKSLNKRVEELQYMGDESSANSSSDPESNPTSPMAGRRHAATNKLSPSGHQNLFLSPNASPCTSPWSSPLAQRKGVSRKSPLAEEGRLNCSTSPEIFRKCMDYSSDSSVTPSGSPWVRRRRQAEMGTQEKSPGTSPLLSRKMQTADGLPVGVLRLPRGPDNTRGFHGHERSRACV
Excerpt: The component with antifibrotic activity in the commercial cefixime preparations was identified by affinity binding of the commercial cefixime preparations to the purified LARP6 protein, followed by elution of the bound molecular species and their identification by mass spectrometry. […] This component has two diastereomer isoforms which were present in miniscule amounts in the commercial cefixime preparations, but both were sequestered by LARP6 protein.

[1] = tested on: fibronectin secretion by human lung fibroblasts; assay: Fibronectin secretion by human lung fibroblasts (western blot, specificity control); assay type: cell-based; details: same treatment as collagen read-out
Protocol: At 50 μM, secretion of type I collagen was reduced by about 50%. At 100 μM it was reduced by about 80%. […] This provided evidence that a component of commercial cefixime preparations can act as antifibrotic drugs.
Human lung fibroblasts are responsible for lung fibrosis. These cells were cultured in vitro and CID 71314610 was added to the cellular medium at 0.5-50 μM. After overnight incubation the medium was changed and secretion of type I collagen into the fresh medium was analyzed by western blot. The rate of collagen secretion into the medium is a measure of the profibrotic activity of cells. Type I collagen is composed of two polypeptides, α1(I) and α2(I), so both were analyzed. […] In three independent experiments the expression of α1(I) and α2(I) polypeptides was normalized to the expression of fibronectin and plotted as function of CID 71314610 concentration (FIG. 13, bottom panel).

[2] = tested on: type I collagen secretion by human lung fibroblasts; assay: Type I collagen secretion by human lung fibroblasts (western blot of medium); assay type: cell-based
Protocol: Based on the ability of the cefixime preparation 1 component to inhibit LARP6/5′SL interaction, cefixime preparation 2 was tested to inhibit type 1 collagen production by human lung fibroblasts. The cells were treated with cefixime preparation 2 in a range of concentrations for 18 hours. The cellular medium was changed and the accumulation of type I collagen into the fresh medium was measured after 3 hours. This provided an estimate of the rate by which the cells can secrete type I collagen. […] At 50 μM, secretion of type I collagen was reduced by about 50%. At 100 μM it was reduced by about 80%. […] This provided evidence that a component of commercial cefixime preparations can act as antifibrotic drugs. Human lung fibroblasts are responsible for lung fibrosis. These cells were cultured in vitro and CID 71314610 was added to the cellular medium at 0.5-50 μM. After overnight incubation the medium was changed and secretion of type I collagen into the fresh medium was analyzed by western blot. The rate of collagen secretion into the medium is a measure of the profibrotic activity of cells. Type I collagen is composed of two polypeptides, α1(I) and α2(I), so both were analyzed. […] In three independent experiments the expression of α1(I) and α2(I) polypeptides was normalized to the expression of fibronectin and plotted as function of CID 71314610 concentration (FIG. 13, bottom panel).

LARP6/5′SL RNA complex = target: T2, LARP6/5′SL RNA complex (Homo sapiens, UniProt Q9BRS8); assay: Gel mobility shift: purified/recombinant LARP6 binding to 5′ stem-loop RNA in vitro; details: recombinant LARP6, electrophoretic mobility shift assay, FIG. 12
T2 sequence (Q9BRS8 1-491): T1 sequence (Q9BRS8 1-491)
Protocol: Next, the inhibition of LARP6 binding was tested by gel mobility shift experiments in which binding of purified LARP6 to 5′SL RNA was resolved as protein/RNA complex in gel electrophoresis.
To assess the efficacy of CID 71314610 in inhibiting LARP6 binding to its target sequence, the 5′ stem-loop of type I collagen mRNAs, recombinant LARP6 protein was added to 5′ stem-loop RNA in vitro and CID 71314610 was added at nano-M concentrations to the reaction. The formation of LARP6/RNA complex was analyzed by electrophoretic mobility shift assay.

fraction of input present in cefixime preparation bound by LARP6 (purified LARP6 protein; one diastereomer): 50%
fraction of input present in cefixime preparation bound by LARP6 (purified LARP6 protein; the other diastereomer): 100%
dissociation of LARP6/RNA complexes (LARP6/5′SL RNA complex; 50 nM): 50%
dissociation of LARP6/RNA complexes (LARP6/5′SL RNA complex; 100 nM): ~90%
SMILES: CC1OC(=O)C2=C1CS[C@H](CNC(=O)/C(=N\OCC(=O)O)c1csc(N)n1)N2 (mixture of isomers) [CID 71314610, 2-[[[(Z)-1-(2-Aminothiazol-4-yl)-2-[[[(2R,5RS)-5-methyl-7-oxo-1,2,5,7-tetrahydro-4H-furo[3,4-d][1,3]thiazin-2-yl]methyl]amino]-2-oxoethylidene]amino]oxy]acetic acid]
secretion of fibronectin [1]: not affected
secretion of α1(I) and α2(I) collagen polypeptides ([2]; 0.5-50 μM, overnight incubation, FIG. 13 upper panel): inhibited by CID 71314610 in the concentration dependent manner
concentration with highly statistically significant inhibition of both polypeptides comprising type I collagen ([2]; three independent experiments, normalized to fibronectin, FIG. 13 bottom panel): 5 µM
